Species on record: Rattus norvegicus
Assay: Open TG-GATES - Regimen: Single
Format: toxicity, organism-based, Sprague-Dawley
Parameters: regimen Single, gender Male, age 6 weeks
Conditions: in vivo, po, 200 mg/kg, route gavage, dose level High; for APTT / Bas / Eos / Fbg / Hb / Ht / Lym / MCH / MCHC / MCV / Mono / Neu / PT / Plat / RBC / Ret / WBC: tissue Blood; for KIDNEY_L / KIDNEY_R / KIDNEY_TOTAL: tissue Kidney; for LIVER: tissue Liver; for A/G / ALP / ALT / AST / BUN / CRE / Ca / Cl / DBIL / GLC / IP / K / LDH / Na / PL / RALB / TBIL / TC / TG / TP / gamma-GTP: tissue Plasma

`CC(CN1c2ccccc2Sc2ccccc21)N(C)C` (configuration not stated) [PROMETHAZINE] showed a TERMINAL_BW (3 h) of 219.2 g, an APTT (3 h) of 23.5 s and a Bas (3 h) of 0%. For the same molecule, the Eos (3 h) was 0.8%, the Fbg (3 h) was 315.2 mg/dL and the Hb (3 h) was 13.5 g/dL. The Ht (3 h) was 40.9%, the Lym (3 h) was 78.4% and the MCH (3 h) was 21 pg. The MCHC (3 h) was 32.9%, the MCV (3 h) was 63.9 fL and the Mono (3 h) was 3%. The Neu (3 h) was 17%, the PT (3 h) was 16.4 s and the Plat (3 h) was 126.9 x10_4/uL. For the same molecule, the RBC (3 h) was 640.8 x10_4/ul, the Ret (3 h) was 7.8% and the WBC (3 h) was 66.9 x10_2/uL. The KIDNEY_L (3 h) was 0.9 g, the KIDNEY_R (3 h) was 1 g and the KIDNEY_TOTAL (3 h) was 1.9 g. It also gave an LIVER (3 h) of 9.7 g, an A/G (3 h) of 1.3 and an ALP (3 h) of 1534.6 IU/L. The ALT (3 h) was 59 IU/L, the AST (3 h) was 90.2 IU/L and the BUN (3 h) was 11.8 mg/dL. The CRE (3 h) was 0.1 mg/dL, the Ca (3 h) was 10.8 mg/dL and the Cl (3 h) was 105.4 meq/L. It also gave a DBIL (3 h) of 0.036 mg/dL, a GLC (3 h) of 181 mg/dL and an IP (3 h) of 10.1 mg/dL. It also gave a K (3 h) of 4.3 meq/L, an LDH (3 h) of 211.8 IU/L and a Na (3 h) of 141.6 meq/L. For the same molecule, the PL (3 h) was 135.4 mg/dL, the RALB (3 h) was 3.2 g/dL and the TBIL (3 h) was 0.024 mg/dL. The TC (3 h) was 77.2 mg/dL, the TG (3 h) was 47.4 mg/dL and the TP (3 h) was 5.6 g/dL. It also gave a gamma-GTP (3 h) of 1.2 IU/L, a TERMINAL_BW (6 h) of 215.1 g and an APTT (6 h) of 24 s. The Bas (6 h) was 0%, the Eos (6 h) was 0.4% and the Fbg (6 h) was 348.2 mg/dL. For the same molecule, the Hb (6 h) was 13.5 g/dL, the Ht (6 h) was 40.8% and the Lym (6 h) was 72.4%. The MCH (6 h) was 20.7 pg, the MCHC (6 h) was 33.1% and the MCV (6 h) was 62.7 fL. It also gave a Mono (6 h) of 2.6%, a Neu (6 h) of 23.4% and a PT (6 h) of 16.5 s. The Plat (6 h) was 123.7 x10_4/uL, the RBC (6 h) was 650.4 x10_4/ul and the Ret (6 h) was 7.5%. For the same molecule, the WBC (6 h) was 56.6 x10_2/uL, the KIDNEY_L (6 h) was 0.9 g and the KIDNEY_R (6 h) was 0.9 g. The KIDNEY_TOTAL (6 h) was 1.9 g, the LIVER (6 h) was 9.1 g and the A/G (6 h) was 1.2. For the same molecule, the ALP (6 h) was 1235.6 IU/L, the ALT (6 h) was 44.8 IU/L and the AST (6 h) was 77.8 IU/L. It also gave a BUN (6 h) of 9.8 mg/dL, a CRE (6 h) of 0.2 mg/dL and a Ca (6 h) of 10.7 mg/dL. The Cl (6 h) was 106.4 meq/L, the DBIL (6 h) was 0.018 mg/dL and the GLC (6 h) was 184.8 mg/dL. For the same molecule, the IP (6 h) was 9.4 mg/dL, the K (6 h) was 4.4 meq/L and the LDH (6 h) was 237.2 IU/L. It also gave a Na (6 h) of 141 meq/L, a PL (6 h) of 130.2 mg/dL and an RALB (6 h) of 3.1 g/dL. It also gave a TBIL (6 h) of 0.016 mg/dL, a TC (6 h) of 76 mg/dL and a TG (6 h) of 42 mg/dL. For the same molecule, the TP (6 h) was 5.7 g/dL, the gamma-GTP (6 h) was 1.4 IU/L and the TERMINAL_BW (9 h) was 208.1 g. For the same molecule, the APTT (9 h) was 24 s, the Bas (9 h) was 0% and the Eos (9 h) was 0.6%. The Fbg (9 h) was 316.4 mg/dL, the Hb (9 h) was 13.6 g/dL and the Ht (9 h) was 41.5%. It also gave a Lym (9 h) of 76%, an MCH (9 h) of 20.4 pg and an MCHC (9 h) of 32.9%. For the same molecule, the MCV (9 h) was 62.2 fL, the Mono (9 h) was 2.2% and the Neu (9 h) was 20.8%. It also gave a PT (9 h) of 16.4 s, a Plat (9 h) of 129.1 x10_4/uL and an RBC (9 h) of 667.2 x10_4/ul. The Ret (9 h) was 7.4%, the WBC (9 h) was 67.2 x10_2/uL and the KIDNEY_L (9 h) was 0.9 g. It also gave a KIDNEY_R (9 h) of 0.9 g, a KIDNEY_TOTAL (9 h) of 1.8 g and an LIVER (9 h) of 8.4 g. For the same molecule, the A/G (9 h) was 1.2, the ALP (9 h) was 1643.2 IU/L and the ALT (9 h) was 39.6 IU/L. It also gave an AST (9 h) of 69.2 IU/L, a BUN (9 h) of 10 mg/dL and a CRE (9 h) of 0.2 mg/dL. For the same molecule, the Ca (9 h) was 10.5 mg/dL, the Cl (9 h) was 106.2 meq/L and the DBIL (9 h) was 0.026 mg/dL. The GLC (9 h) was 187 mg/dL, the IP (9 h) was 9.1 mg/dL and the K (9 h) was 4.2 meq/L. The LDH (9 h) was 178.8 IU/L, the Na (9 h) was 141 meq/L and the PL (9 h) was 133.6 mg/dL. The RALB (9 h) was 3.1 g/dL, the TBIL (9 h) was 0.016 mg/dL and the TC (9 h) was 75.6 mg/dL. It also gave a TG (9 h) of 43 mg/dL, a TP (9 h) of 5.6 g/dL and a gamma-GTP (9 h) of 1 IU/L. For the same molecule, the TERMINAL_BW (24 h) was 209.6 g, the APTT (24 h) was 22.3 s and the Bas (24 h) was 0%. It also gave an Eos (24 h) of 0.8%, a Fbg (24 h) of 311.2 mg/dL and a Hb (24 h) of 13.7 g/dL. The Ht (24 h) was 41.5%, the Lym (24 h) was 77.8% and the MCH (24 h) was 20.1 pg. For the same molecule, the MCHC (24 h) was 33%, the MCV (24 h) was 60.8 fL and the Mono (24 h) was 2.4%. For the same molecule, the Neu (24 h) was 19%, the PT (24 h) was 16.8 s and the Plat (24 h) was 138.5 x10_4/uL. It also gave an RBC (24 h) of 684.4 x10_4/ul, a Ret (24 h) of 6.4% and a WBC (24 h) of 71.5 x10_2/uL. For the same molecule, the KIDNEY_L (24 h) was 0.9 g, the KIDNEY_R (24 h) was 0.9 g and the KIDNEY_TOTAL (24 h) was 1.9 g. It also gave an LIVER (24 h) of 8.6 g, an A/G (24 h) of 1.3 and an ALP (24 h) of 1472.4 IU/L. For the same molecule, the ALT (24 h) was 40.8 IU/L, the AST (24 h) was 68 IU/L and the BUN (24 h) was 14.6 mg/dL. It also gave a CRE (24 h) of 0.2 mg/dL, a Ca (24 h) of 10.7 mg/dL and a Cl (24 h) of 107.6 meq/L. For the same molecule, the DBIL (24 h) was 0.018 mg/dL, the GLC (24 h) was 185.2 mg/dL and the IP (24 h) was 8.3 mg/dL. For the same molecule, the K (24 h) was 4.2 meq/L, the LDH (24 h) was 190 IU/L and the Na (24 h) was 142.4 meq/L. For the same molecule, the PL (24 h) was 139 mg/dL, the RALB (24 h) was 3.1 g/dL and the TBIL (24 h) was 0.018 mg/dL. For the same molecule, the TC (24 h) was 79.4 mg/dL, the TG (24 h) was 43.4 mg/dL and the TP (24 h) was 5.6 g/dL. It also gave a gamma-GTP (24 h) of 1 IU/L.
